Key:
[1] = test system: insulin, IGF-I, IGF-II, their receptors, IRS-1, IRS-2, IRS-4 mRNA in liver; assay: qRT-PCR of hepatic insulin and IGF polypeptides, their receptors, and IRS molecules; format: in vivo, rat; settings: relative to vehicle; for IGF-II mRNA: chronic ethanol feeding; for IGF-I mRNA: control rats
Description: (§1) Chow fed control rats were also studied. Rats were monitored daily to ensure equivalent food consumption and maintenance of body weight. […] At the conclusion of the experiment, rats were anesthetized with vaporized isofluorane (SurgiVet, Inc. Waukesha, Wis.), and liver and blood were harvested for analysis. Liver tissue samples were immersion fixed in Histochoice (Amresco Corp., Solon, Ohio) and embedded in paraffin. Adjacent histological sections were stained with Hematoxylin and Eosin or Gomori's Trichrome and examined under code. In addition, liver tissue samples were snap-frozen in a dry ice methanol bath and then stored at −80° C. for later mRNA and protein studies. Throughout the experiment, rats were housed under humane conditions and kept on a 12-hour light/dark cycle with free access to food. All experiments were performed in accordance with protocols that conform to guidelines established by the National Institutes of Health and were approved by Institutional Animal Care and Use Committee at the Lifespan-Rhode Island Hospital.
Total RNA was extracted from liver tissue using TRIzol® reagent (Invitrogen, Carlsbad, Calif.) according to the manufacturer's protocol. RNA concentrations and purity were determined from the absorbances measured at 260 nm and 280 nm. RNA (2 μg) was reverse transcribed using the AMV First Strand cDNA synthesis kit (Roche Diagnostics Corporation, Indianapolis, Ind.) and random oligodeoxynucleotide primers. Quantitative reverse transcriptase polymerase chain reaction (qRT-PCR) assays were used to measure steady-state levels of specific mRNA transcripts. PCR amplifications were performed in 20 μl reactions containing cDNA generated from 2.5 ng of original RNA template, 300 nM each of gene specific forward and reverse primer (Table 2), and 10 μl of 2× QuantiTect SYBR Green PCR Mix (Qiagen Inc, Valencia, Calif.). The amplified signals were detected continuously with the Mastercycler ep realplex instrument and software (Eppendorf AG, Hamburg, Germany). The amplification protocol used was as follows: initial 15-minutes denaturation and enzyme activation at 95° C., 45 cycles of 95° C.×15 sec, 55°-60° C.×30 sec, and 72° C.×30 sec. Annealing temperatures were optimized using the temperature gradient program provided with the Mastercycler ep realplex software.
Complementary (c) DNAs were cloned into PCR-II vectors (Invitrogen, Carlsbad, Calif.). […] Serial dilutions of recombinant plasmid DNA containing target sequences were used as standards in PCR reactions, and regression lines generated from the Ct values of the standards were used to calculate mRNA abundance. Relative mRNA expression was expressed as the ng ratio of specific mRNA to ribosomal (r) 18S measured in the same samples because 18S is highly abundant and the levels are not modulated with disease state. Statistical comparisons were made using the calculated mRNA/18S ratios.

AAH and GAPDH = assay: ELISA of AAH and GAPDH immunoreactivity in liver; format: in vivo, rat
Description: as §1
ELISAs were used to measure immunoreactivity corresponding to AAH, GAPDH and β-actin (negative control). ELISAs were performed in 96-well opaque polystyrene plates (Nalge Nunc International, Rochester, N.Y.). RIPA protein extracts diluted in TBS (40 ng/100 μl) were adsorbed to the bottoms of the wells by overnight incubation at 4° C. After rinsing in TBS, the wells were blocked for 4 hours with 250 μl/well of 2% BSA in TBS. The proteins were then incubated with primary antibody (0.01-0.1 μg/ml) for 1 hour at room temperature. Immunoreactivity was detected with HRP-conjugated secondary antibody (1:10000; Pierce) and the Amplex Red soluble fluorophore (Molecular Probes). […] Binding specificity was determined from parallel negative control incubations with non-relevant antibodies, or with the primary or secondary antibody omitted. The mean levels of specific AAH, GAPDH, and β-actin immunoreactivity were used for inter-group statistical comparisons.

Row | SMILES | insulin gene expression ([1]; ethanol-exposed group) | AAH expression (ELISA) (AAH and GAPDH; control livers) | GAPDH expression (ELISA) (AAH and GAPDH; control livers) | AAH expression (ELISA) (AAH and GAPDH; ethanol-exposed livers) | GAPDH expression (ELISA) (AAH and GAPDH; ethanol-exposed livers) | IGF-II mRNA [1] | insulin gene expression ([1]; control group) | IGF-I mRNA [1] | IRS-2 mRNA ([1]; ethanol-exposed rats) | IRS-2 mRNA ([1]; control group) | insulin receptor mRNA ([1]; controls) | IRS-4 mRNA ([1]; ethanol-exposed group) | insulin receptor mRNA ([1]; ethanol-fed rat livers) | IRS-1 mRNA ([1]; ethanol-fed rats)
1 | CC(C)(Sc1ccc(CCN(CCCCC2CCCCC2)C(=O)NC2CCCCC2)cc1)C(=O)O [PPAR-α, GW7647] | reduced | no significant effect | no significant effect | no significant effect | no significant effect |  |  |  |  |  |  |  |  | 
2 | CC(C)C[C@H](NC(=O)OCC1c2ccccc2-c2ccccc21)C(=O)O [PPAR-γ, F-L-Leu] |  | slightly reduced |  |  | significantly increased | significantly reduced | significantly increased | significantly increased | significantly reduced |  |  |  |  | 
3 | CCCc1c(OCCCOc2ccc(OCC(=O)O)cc2)ccc(C(C)=O)c1O [PPAR-δ, L-165,041] | reduced | slightly reduced |  |  | significantly increased | significantly reduced | significantly increased | significantly increased |  | significantly increased | increased | significantly reduced | significantly reduced | significantly reduced
